{"source": "paper PMC3794927", "about": "“A Novel Antidiabetic Drug, Fasiglifam/TAK-875, Acts as an Ago-Allosteric Modulator of FFAR1” (PLoS ONE, 2013)", "key": {"[1]": {"system": "FFAR1 H137A and L186A mutants", "assay": "Ca2+ influx assay, FFAR1 point mutants in transfected HEK293T cells", "assay_type": "cell-based", "conditions": "for change of EC50 in mutants versus wild-type: range over fasiglifam and GW9508 and both mutants", "method": "(§1) FLAG-tagged FFAR1 was constructed using a two-step procedure. Initially, untagged FFAR1-pcDNA3.1 was amplified using the forward primer ([…]) and the reverse primer ([…]) to insert a FLAG epitope at the N terminus of the receptor. Following this, the polymerase chain reaction (PCR) product was purified and ligated into a pcDNA3.1 vector. Mutations were made using the QuikChange Site-Directed Mutagenesis Kit (Stratagene) and verified by sequencing.\n(§2) For stable CHO cell lines, cells were seeded in black-walled clear-bottomed 96-well cell culture plates (Costar) and incubated overnight in 5% CO2 at 37°C. Otherwise, HEK293T cells were transiently transfected with expression plasmids using Trans-IT (Mirus) or Lipofectamine 2000, followed by plating in poly-D-lysine-coated black clear 96-well plates (BD Falcon) and incubated for 2 days. These cells were then incubated at 37°C for 1 h in HEPES-buffered Hank’s balanced salt solution (pH 7.4) containing 2.5 mM probenecid, 1% FBS, and 4 µM fluo-3 AM (Dojindo). Following this, the cells were washed four times with the solution without fluo-3 AM. Intracellular Ca^2+ concentrations were measured before and after adding samples using FLIPR (Molecular Devices). Assays were performed in the absence of bovine serum albumin (BSA). EC50, 95% confidence interval and Emax values for each curve were calculated by data analysis using 4-parameter logistic equation in Prism 5 software (GraphPad Software)."}, "[2]": {"system": "FFAR1 R183A and R258A mutants", "assay": "Ca2+ influx assay, FFAR1 point mutants in transfected HEK293T cells", "assay_type": "cell-based", "method": "as §1, §2"}, "[3]": {"system": "FFAR1 Y91A and N244A mutants", "assay": "Ca2+ influx assay, FFAR1 point mutants in transfected HEK293T cells", "assay_type": "cell-based", "method": "as §1, §2"}, "[4]": {"system": "N-STZ-1.5 rats", "assay": "Oral glucose tolerance test in diabetic N-STZ-1.5 rats", "assay_type": "in vivo, rat", "method": "Blood samples were collected from the tail vein before drug administration (pre), before glucose load (time 0), and 10, 30, 60, and 120 min after the glucose load. Plasma glucose and FFA levels were measured using Autoanalyzer 7080 (Hitachi, Japan), and insulin levels were measured using the Rat Insulin ELISA Kit (Morinaga, Japan). All procedures were conducted according to the Experimental Animal Care and Use Committee of Takeda Pharmaceutical Company Limited."}, "[5]": {"target": "T1, hFFAR1 (Homo sapiens, UniProt O14842)", "T1 construct": "expressed in transfected cells", "T1 sequence (O14842 whole entry)": "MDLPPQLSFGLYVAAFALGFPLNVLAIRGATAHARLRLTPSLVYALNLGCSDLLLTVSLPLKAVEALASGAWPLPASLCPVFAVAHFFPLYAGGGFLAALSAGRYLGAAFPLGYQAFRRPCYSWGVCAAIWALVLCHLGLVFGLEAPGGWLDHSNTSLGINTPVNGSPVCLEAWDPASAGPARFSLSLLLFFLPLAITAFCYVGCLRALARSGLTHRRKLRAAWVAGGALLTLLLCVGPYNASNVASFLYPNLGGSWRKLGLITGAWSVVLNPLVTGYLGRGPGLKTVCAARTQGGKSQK", "assay": "Ca2+ mobilization assay (FLIPR) in CHO cells stably expressing hFFAR1", "assay_type": "cell-based", "conditions": "for agonistic activity, Ca2+ influx: hFFAR1/CHO cells (clone #104)", "method": "Cells were selected by culturing in nucleotide-free alpha-minimum essential medium (α-MEM; Invitrogen) supplemented with 10% dialyzed and heat-inactivated fetal bovine serum (FBS; Invitrogen), 100 IU/mL penicillin, and 100 µg/mL streptomycin (Invitrogen). […] The murine pancreatic β cell line MIN6 cells were kindly provided by Dr. Miyazaki. […] Cells were cultured in a humidified atmosphere containing 5% CO2/95% air at 37°C.\nas §2, with “(BSA).” for “(BSA). EC50, 95% confidence interval and Emax values for each curve were calculated by data analysis using 4-parameter logistic equation in Prism 5 software (GraphPad Software).”"}, "[6]": {"target": "T2, mFFAR1 (Mus musculus, UniProt Q76JU9)", "T2 construct": "expressed in transfected cells", "T2 sequence (Q76JU9 whole entry)": "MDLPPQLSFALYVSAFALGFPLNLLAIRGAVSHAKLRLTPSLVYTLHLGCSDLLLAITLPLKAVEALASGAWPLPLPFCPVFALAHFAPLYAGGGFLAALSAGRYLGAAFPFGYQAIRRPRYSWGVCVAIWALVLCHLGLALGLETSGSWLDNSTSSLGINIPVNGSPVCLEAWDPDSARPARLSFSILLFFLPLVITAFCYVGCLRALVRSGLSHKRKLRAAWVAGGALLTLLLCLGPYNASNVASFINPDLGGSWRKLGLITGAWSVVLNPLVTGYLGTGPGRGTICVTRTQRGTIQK", "assay": "Ca2+ mobilization assay (FLIPR) in CHO cells stably expressing mFFAR1", "assay_type": "cell-based", "method": "To establish CHO cells (dhfr−) stably expressing hFFAR1 or mFFAR1, CHO/dhfr− (ATCC catalog # CRL-9096) cells were transfected with hFFAR1-pAKKO-111H or mFFAR1-pAKKO-111H plasmid using Lipofectamine 2000 (Invitrogen). Cells were selected by culturing in nucleotide-free alpha-minimum essential medium (α-MEM; Invitrogen) supplemented with 10% dialyzed and heat-inactivated fetal bovine serum (FBS; Invitrogen), 100 IU/mL penicillin, and 100 µg/mL streptomycin (Invitrogen). HEK293T (ATCC catalog # CRL-11268) cells were cultured in Dulbecco’s modified Eagle’s medium (DMEM, Invitrogen) supplemented with 10% heat-inactivated FBS, 100 IU/mL penicillin, and 100 µg/mL streptomycin. The murine pancreatic β cell line MIN6 cells were kindly provided by Dr. Miyazaki. MIN6 cells were grown in DMEM containing 10% heat-inactivated FBS, 100 IU/mL penicillin, 100 µg/mL streptomycin, and 55 µmol/L 2-mercaptoethanol (Invitrogen). Cells were cultured in a humidified atmosphere containing 5% CO2/95% air at 37°C.\nFor stable CHO cell lines, cells were seeded in black-walled clear-bottomed 96-well cell culture plates (Costar) and incubated overnight in 5% CO2 at 37°C. […] Intracellular Ca^2+ concentrations were measured before and after adding samples using FLIPR (Molecular Devices). […]"}, "[7]": {"target": "T1, hFFAR1", "assay": "Ca2+ influx in HEK293T cells transiently transfected with varying amounts of hFFAR1 plasmid", "assay_type": "cell-based", "conditions": "100 ng to 1 ng hFFAR1 plasmid, compared with γ-LA", "method": "as §2\nSupplementary file pone.0076280.s002.tif: Figure S2 Relative efficacy of fasiglifam is affected by FFAR1/GPR40 expression levels in transient HEK293T cells. Relative Ca^2+ influx activities of fasiglifam and γ-linolenic acid (γ-LA) were measured in HEK293T cells transiently transfected with 100 ng (A), 30 ng (B), 10 ng (C), 3 ng (D), and 1 ng (E) of hFFAR1 expression plasmids. Error bars indicate s.e.m. […]"}, "[8]": {"system": "MIN6 cells", "assay": "Insulin secretion assay in MIN6 cells", "assay_type": "cell-based, mouse", "conditions": "16 mM glucose", "method": "MIN6 cells were seeded at a density of 6 × 10^4 cells/well in 96-well plates (BD Falcon), and cells were cultured in the growth medium described above for 2 days before experiments. After discarding the medium, cells were preincubated for 2 h at 37°C with 200 µL of Krebs-Ringer bicarbonate–HEPES (KRBH) buffer (116 mmol/L NaCl, 4.7 mmol/L KCl, 1.17 mmol/L KH2PO4, 1.17 mmol/L MgSO4, 25 mmol/L NaHCO3, 2.52 mmol/L CaCl2, and 24 mmol/L HEPES) containing 0.2% BSA and 1 mmol/L glucose. After discarding the preincubation buffer, KRBH containing 0.2% BSA, 16 mmol/L glucose, and stimulators as shown was added and the plate was incubated for 2 h at 37°C. After incubation, supernatants from each well were collected and secreted insulin concentrations were measured using alphaLISA (PerkinElmer) according to the manufacturer’s instruction."}, "[9]": {"system": "wild-type mouse islets", "assay": "Insulin secretion in wild-type mouse islets", "assay_type": "cell-based", "conditions": "16 mM glucose"}, "[10]": {"system": "FFAR1-knockout mouse islets", "assay": "Insulin secretion in FFAR1-knockout mouse islets", "assay_type": "cell-based", "conditions": "16 mM glucose"}, "[11]": {"system": "rat insulinoma cells", "set-up": "method as in PMID 21752941", "conditions": "prolonged exposure to fasiglifam alone; cited from earlier work"}, "[12]": {"system": "MIN6 cells", "assay": "Caspase 3/7 activity in MIN6 cells (lipotoxicity)", "conditions": "72-h exposure, palmitic acid 0.25–1 mM", "procedure": "(§3) Caspase 3/7 activity in MIN6 cells was measured according to a previously described method (8). In brief, MIN6 cells were seeded at a density of 2 × 10^4 cells/well in a 96-well black clear plate (CORNING) and cultured overnight. After discarding the medium, 1% BSA, palmitic acid–BSA conjugate (0.25, 0.5, and 1 mM) or γ-LA–BSA conjugate (0.25, 0.5, and 1 mM) in combination with 0.1% DMSO or fasiglifam (0.1, 1, and 10 µM) were added to the plates and cultured for 72 h. After incubation, caspase 3/7 activity was measured using the Apo-one Homogeneous Caspase 3/7 assay (Promega) according to the manufacturers’ instructions. Fluorescent intensity was measured at excitation and emission wavelengths of 485 nm and 535 nm, respectively (Wallac 1420 ARVO SX Multilabel Counter; PerkinElmer)."}, "[13]": {"system": "MIN6 cells", "conditions": "mouse, 72 h, 1 mM", "procedure": "as §3"}}, "note": "Where two headings read alike, the source gives them in different places."}
{"smiles": "O=C(O)CCc1ccc(NCc2cccc(Oc3ccccc3)c2)cc1", "note": "[GW9508]", "values": [{"measurement": "change of EC50 in mutants versus wild-type", "setting": "[1]", "result": "7.7- to 130 fold"}, {"measurement": "Ca2+ influx response of mutants", "setting": "[2]", "result": "almost completely unresponsive"}, {"measurement": "effect of mutations on potency", "setting": "[3]", "result": "more drastic"}]}
{"smiles": "Cc1cnc(C(=O)O)c[n+]1[O-]", "note": "[acipimox]", "values": [{"measurement": "plasma FFA levels", "setting": "[4]; acipimox 30 mg/kg oral, N-STZ-1.5 rats, OGTT", "result": "rapid decrease"}, {"measurement": "glucose tolerance", "setting": "[4]; acipimox alone 30 mg/kg, OGTT, N-STZ-1.5 rats", "result": "improved glucose tolerance"}, {"measurement": "plasma FFA level after reduction with acipimox", "setting": "[4]; diabetic rats, acipimox", "result": "approximately 0.2 mEq/L"}]}
{"smiles": "Cc1cc(OCCCS(C)(=O)=O)cc(C)c1-c1cccc(COc2ccc3c(c2)OC[C@H]3CC(=O)O)c1.Cc1cc(OCCCS(C)(=O)=O)cc(C)c1-c1cccc(COc2ccc3c(c2)OC[C@H]3CC(=O)O)c1.O", "note": "[fasiglifam, [(3S)-6-({2′,6′-dimethyl-4′-[3-(methylsulfonyl)propoxy]biphenyl-3-yl}methoxy)-2,3-dihydro-1-benzofuran-3-yl] acetic acid hemihydrate]", "values": [{"measurement": "agonistic activity, Ca2+ influx", "setting": "[5]", "result": "higher potency than FFAs"}, {"measurement": "effect of simultaneous γ-LA on fasiglifam Ca2+ activity", "setting": "[5]; hFFAR1/CHO clone #2, increasing doses of γ-LA", "result": "remarkable potentiation"}, {"measurement": "Emax, Ca2+ mobilization", "setting": "[6]", "result": "lower Emax than γ-LA"}, {"measurement": "maximal response as amount of transfection plasmid decreased", "setting": "[7]", "result": "dramatically decreased"}, {"measurement": "change of EC50 in mutants versus wild-type", "setting": "[1]", "result": "7.7- to 130 fold"}, {"measurement": "Ca2+ influx response of mutants", "setting": "[2]", "result": "almost unresponsive"}, {"measurement": "effect of mutations on potency", "setting": "[3]", "result": "more drastic"}, {"measurement": "increase in the maximal response of fasiglifam (insulin secretion) by γ-LA", "setting": "[8]; γ-LA 100 µM", "result": "1.5–2 fold"}, {"measurement": "effect of γ-LA on insulinotropic activity of fasiglifam", "setting": "[9]", "result": "dramatic improvement"}, {"measurement": "insulinotropic effect in FFAR1-knockout islets", "setting": "[10]", "result": "completely abolished"}, {"measurement": "insulinotropic action in acipimox-treated rats", "setting": "[4]; fasiglifam 10 mg/kg + acipimox 30 mg/kg, OGTT", "result": "significantly suppressed"}, {"measurement": "plasma insulin (insulinotropic effect) versus vehicle", "setting": "[4]; fasiglifam alone 10 mg/kg oral, at 0, 10, and 30 min of OGTT", "result": "significant insulinotropic effects"}, {"measurement": "effect on apoptosis", "setting": "[11]", "result": "no effect on apoptosis"}]}
{"smiles": "CCC1=C(C)CN(C(=O)NCCc2ccc(S(=O)(=O)NC(=O)N[C@H]3CC[C@H](C)CC3)cc2)C1=O", "note": "[glimepiride]", "values": [{"measurement": "insulinotropic effect in FFAR1-knockout islets", "setting": "[10]", "result": "not affected"}]}
{"smiles": "CCCCCCCCCCCCCC(=O)O", "note": "[myristic acid]", "values": [{"measurement": "agonistic activity, Ca2+ influx", "setting": "[5]", "result": "partial activities"}]}
{"smiles": "CCCCCCCCCCCCCCCC(=O)O", "note": "[palmitic acid]", "values": [{"measurement": "agonistic activity, Ca2+ influx", "setting": "[5]", "result": "partial activities"}, {"measurement": "caspase 3/7 activity", "setting": "[12]", "result": "increased caspase 3/7 activity in a dose-dependent manner"}]}
{"smiles": "CCCCC/C=C\\C/C=C\\C/C=C\\CCCCC(=O)O", "note": "[γ-LA, γ-linolenic acid]", "values": [{"measurement": "agonistic activity, Ca2+ influx", "setting": "[5]", "result": "full agonistic activity"}, {"measurement": "EC50", "setting": "[5]; hFFAR1/CHO clone #2, without fasiglifam, read-out: EC50 of γ-LA response (Ca2+ influx)", "result": 5.39, "unit": "µM"}, {"measurement": "activity in mutants versus wild-type", "setting": "[1]", "result": "remained almost unchanged"}, {"measurement": "Ca2+ influx response of mutants", "setting": "[2]", "result": "relatively less affected"}, {"measurement": "insulin secretion, compound alone", "setting": "[8]; 0.2% BSA", "result": "could not significantly potentiate insulin secretion"}, {"measurement": "caspase 3/7 activity", "setting": "[13]", "result": "significant enhancements of caspase 3/7 activity"}]}
